Source: patent US5773451A, “Substituted arylthioalkylthiopyridines” (BYK Gulden Lomberg Chemische Fabrik GmbH, priority 1993, dated 1998)
Values after ≈ are worked out from the molar mass of the structure shown.

Test system: Helicobacter pylori
Assay: activity against Helicobacter pylori (MIC 50, Columbia agar, growth period of 4 days)
Assay type: cell-based
Details: 96 h, Columbia agar (Oxoid), method of Iwahi et al., approximate values, read-out: Approx. MIC 50 value
Source text: The compounds of formula I have been investigated in respect of their activity against Helicobacter pylori in accordance with the method described by Tomoyuki Iwahi et al. (Antimicrobial Agents and Chemo-therapy, 1991, 490-496) using Columbia agar (Oxoid) over a growth period of 4 days. The approximate MIC 50 values listed in the following Table 2 resulted from these tests for the compounds studied (the numbers stated for the compounds agree with the compound numbers in the description).

Row | MIC50 [µg/mL] | Structure (SMILES)
1 | ~0.05 (≈ 0.114 µM) | Cc1c(SCCCSc2ccccc2)ccnc1CSc1nc2ccccc2[nH]1 [Compound 13]
2 | ~0.05 (≈ 0.112 µM) | Cc1c(SCCCSc2nccs2)ccnc1CSc1nc2ccccc2[nH]1 [Compound 9, 2-{[[3-Methyl-4-(3-(thiazol-2-yl-thio)-propylthio)2-pyridinyl]methyl]thio}-1H-benzimidazole]
3 | ~0.05 (≈ 0.109 µM) | Cc1c(SCCCCSc2nnnn2C)ccnc1CSc1nc2ccccc2[nH]1 [Compound 24, 2-{[[3-Methyl-4-(4-(1-methyl-tetrazol-5-yl-thio)-butylthio)-2-pyridinyl]methyl]thio}-1H-benzimidazole]
4 | ~0.05 (≈ 0.113 µM) | Cc1c(SCCCSc2nnnn2C)ccnc1CSc1nc2ccccc2[nH]1 [Compound 8, 2-{[[3-Methyl-4-(3-(1-methyl-tetrazol-5-yl-thio)-propylthio)-2-pyridinyl]methyl]thio}-1H-benzimidazole]
5 | ~0.05 (≈ 0.114 µM) | Cc1c(SCCCSc2ccccn2)ccnc1CSc1nc2ccccc2[nH]1 [Compound 10, 2-{[[3-Methyl-4-(3-(pyridin-2-yl-thio)-propylthio)-2-pyridinyl]methyl]thio}-1H-benzimidazole]
6 | ~0.1 (≈ 0.234 µM) | Cc1c(SCCCSc2ncc[nH]2)ccnc1CSc1nc2ccccc2[nH]1 [Compound 6, 2-{[[4-[3-Imidazol-2-yl-thio-propylthio]-3-methyl-2-pyridinyl]methyl]thio}-1H-benzimidazole]
7 | ~0.05 (≈ 0.114 µM) | Cc1c(SCCCSc2ncccn2)ccnc1CSc1nc2ccccc2[nH]1 [Compound 11, 2-{[[3-Methyl-4-(3-(pyrimidin-2-yl-thio)-propylthio)-2-pyridinyl]methyl]thio}-1H-benzimidazole]
8 | ~0.05 (≈ 0.113 µM) | Cc1c(SCCCSc2nccn2C)ccnc1CSc1nc2ccccc2[nH]1 [Compound 3, 2-{[[3-Methyl-4-(3-(1-methylimidazol-2-yl-thio)-propylthio)-2-pyridinyl]methyl]thio}-1H-benzimidazole]
9 | ~0.05 (≈ 0.113 µM) | Cc1c(SCCCSc2nncn2C)ccnc1CSc1nc2ccccc2[nH]1 [Compound 2, 2-{[[3-Methyl-4-(3-(4-methyl-1,2,4-triazol-3-yl-thio)-propylthio)-2-pyridinyl]methyl]thio}-1H-benzimidazole]
10 | ~0.05 (≈ 0.11 µM) | Cc1ccnc(SCCCSc2ccnc(CSc3nc4ccccc4[nH]3)c2C)n1 [Compound 16, 2-{[[3-Methyl-4-[3-(4-methyl-pyrimidine-2-yl-thio)-propylthio]-2-pyridinyl]methyl]thio}-1H-benzimidazole]
11 | ~0.05 (≈ 0.114 µM) | Cc1c(SCCCSc2ccncc2)ccnc1CSc1nc2ccccc2[nH]1 [Compound 19, 2-{[[3-Methyl-4-(3-(pyridin-4-yl-thio)-propylthio)-2-pyridinyl]methyl]thio}-1H-benzimidazole]
12 | ~0.1 (≈ 0.218 µM) | Cc1nnc(SCCCSc2ccnc(CSc3nc4ccccc4[nH]3)c2C)s1 [Compound 1]
13 | ~0.5 (≈ 1.09 µM) | Cc1c(SCCCSc2nnc(N)s2)ccnc1CSc1nc2ccccc2[nH]1 [Compound 5, 2-{[[4-[3-(5-Amino-1,3,4-thiadiazol-2-yl-thio)-propylthio]-3-methyl-2-pyridinyl]methyl]thio}-1H-benzimidazole]
14 | ~0.05 | Cc1c(SCCCSc2nncs2)ccnc1CSc1nc2ccccc2[nH]1.Cl.Cl.Cl [Compound 18, 2-{[[3-Methyl-4-(3-(1,3,4-thiadiazol-2-yl-thio)-propylthio)-2-pyridinyl]methyl]thio}-1H-benzimidazole trihydrochloride]
15 | ~0.05 (≈ 0.105 µM) | Cc1c(SCCCSc2nc3ccccc3[nH]2)ccnc1CSc1nc2ccccc2[nH]1 [Compound 12]
